According to PubChem BioAssay (NCI):
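Step 1: Grow cells in 96-well plates. Step 2: Expose to compound for 48 hours at 5 concentrations. Step 3: Interpolate endpoints linearly; if unreached, use highest concentration. The concentration for full growth arrest is given as TGI.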

How the values were obtained:
Experiment in all cases: DTP human tumour cell line panel, 48 h
[1] = tested on: NCI-H226 lung
[2] = tested on: NCI/ADR-RES ovarian
[3] = tested on: SN12C renal
[4] = tested on: KM12 colon
[5] = tested on: HCT-15 colon
[6] = tested on: OVCAR-3 ovarian
[7] = tested on: MOLT-4 leukemia
[8] = tested on: SNB-19 CNS
[9] = tested on: MALME-3M melanoma
[10] = tested on: SK-MEL-28 melanoma
[11] = tested on: TK-10 renal
[12] = tested on: A549 NSCLC
[13] = tested on: RXF 393 renal
[14] = tested on: OVCAR-5 ovarian
[15] = tested on: NCI-H460 lung
[16] = tested on: SK-MEL-5 melanoma
[17] = tested on: 786-0 renal
[18] = tested on: U251 CNS
[19] = tested on: A498 renal
[20] = tested on: OVCAR-4 ovarian
[21] = tested on: SW-620 colon
[22] = tested on: SNB-75 CNS
[23] = tested on: CCRF-CEM leukemia
[24] = tested on: HOP-92 NSCLC
[25] = tested on: HS 578T breast
[26] = tested on: K-562 leukemia
[27] = tested on: NCI-H522 lung
[28] = tested on: OVCAR-8 ovarian
[29] = tested on: DU-145 prostate
[30] = tested on: HL-60(TB) leukemia
[31] = tested on: SF-295 CNS
[32] = tested on: UACC-62 melanoma
[33] = tested on: MDA-N
[34] = tested on: SK-MEL-2 melanoma
[35] = tested on: UO-31 renal
[36] = tested on: IGROV1 ovarian
[37] = tested on: NCI-H23 lung
[38] = tested on: MDA-MB-231 breast
[39] = tested on: HT29 colon
[40] = tested on: ACHN renal
[41] = tested on: UACC-257 melanoma
[42] = tested on: MCF7 breast
[43] = tested on: HOP-62 NSCLC
[44] = tested on: COLO 205 colon
[45] = tested on: CAKI-1 renal
[46] = tested on: SF-539 CNS
[47] = tested on: HCT-116 colon
[48] = tested on: HCC-2998 colon
[49] = tested on: EKVX NSCLC
[50] = tested on: RPMI-8226 leukemia
[51] = tested on: T-47D breast
[52] = tested on: BT-549 breast
[53] = tested on: SR leukemia
[54] = tested on: MDA-MB-435
[55] = tested on: LOX IMVI melanoma
[56] = tested on: SK-OV-3 ovarian
[57] = tested on: PC-3 prostate
[58] = tested on: SF-268 CNS
[59] = tested on: M14 melanoma

## CCOP(=O)(CCCC(O)CNc1nc(N)nc(Cl)c1N=Nc1ccc(Cl)cc1)OCC (stereo not given)
[1]
  TGI: 22.1 µM
[2]
  TGI: 31 µM
[3]
  TGI: 18.2 µM
[4]
  TGI: 25 µM
[5]
  TGI: 20.2 µM
[6]
  TGI: 18.4 µM
[7]
  TGI: 11.8 µM
[8]
  TGI: 22.8 µM
[9]
  TGI: 20.9 µM
[10]
  TGI: 20.8 µM
[11]
  TGI: 13.6 µM
[12]
  TGI: 23.9 µM
[13]
  TGI: 18.5 µM
[14]
  TGI: 25.5 µM
[15]
  TGI: 37 µM
[16]
  TGI: 15.5 µM
[17]
  TGI: 17.9 µM
[18]
  TGI: 22.7 µM
[19]
  TGI: 20.7 µM
[20]
  TGI: 17.6 µM
[21]
  TGI: 36.5 µM
[22]
  TGI: 11.1 µM
[23]
  TGI: 9.92 µM
[24]
  TGI: 25.8 µM
[25]
  TGI: 30.3 µM
[26]
  TGI: 16 µM
[27]
  TGI: 17 µM
[28]
  TGI: 22.9 µM
[29]
  TGI: 18.2 µM
[30]
  TGI: 4.19 µM
[31]
  TGI: 21.7 µM
[32]
  TGI: 19.1 µM
[33]
  TGI: 18.8 µM
[34]
  TGI: 27.3 µM
[35]
  TGI: 16.1 µM
[36]
  TGI: 26.1 µM
[37]
  TGI: 28 µM
[38]
  TGI: 8.6 µM
[39]
  TGI: 23.4 µM
[40]
  TGI: 15.4 µM
[41]
  TGI: 18.1 µM
[42]
  TGI: 27 µM
[43]
  TGI: 24.8 µM
[44]
  TGI: 20.4 µM
[45]
  TGI: 13.9 µM
[46]
  TGI: 23 µM
[47]
  TGI: 21.7 µM
[48]
  TGI: 30.6 µM
[49]
  TGI: 15.5 µM
[50]
  TGI: 8.23 µM
[51]
  TGI: 23.2 µM
[52]
  TGI: 20.8 µM
[53]
  TGI: 6.82 µM
[54]
  TGI: 19 µM
[55]
  TGI: 13.8 µM
[56]
  TGI: 19.2 µM
[57]
  TGI: 16.7 µM
[58]
  TGI: 18.1 µM

## CC(=O)OCC1OC(n2cnc3nc(Br)[nH]c(=O)c32)C(OC(C)=O)C1OC(C)=O (stereo not given)
[1]
  TGI: > 100 µM
[2]
  TGI: > 100 µM
[3]
  TGI: > 100 µM
[4]
  TGI: > 100 µM
[5]
  TGI: > 100 µM
[6]
  TGI: > 100 µM
[59]
  TGI: > 100 µM
[7]
  TGI: > 100 µM
[8]
  TGI: > 100 µM
[9]
  TGI: > 100 µM
[11]
  TGI: > 100 µM
[12]
  TGI: > 100 µM
[13]
  TGI: > 100 µM
[14]
  TGI: > 100 µM
[15]
  TGI: > 100 µM
[16]
  TGI: > 100 µM
[17]
  TGI: > 100 µM
[18]
  TGI: > 100 µM
[19]
  TGI: > 100 µM
[20]
  TGI: > 100 µM
[21]
  TGI: > 100 µM
[22]
  TGI: > 100 µM
[23]
  TGI: > 100 µM
[24]
  TGI: > 100 µM
[25]
  TGI: > 100 µM
[26]
  TGI: > 100 µM
[27]
  TGI: > 100 µM
[28]
  TGI: > 100 µM
[29]
  TGI: > 100 µM
[30]
  TGI: > 100 µM
[31]
  TGI: > 100 µM
[32]
  TGI: > 100 µM
[33]
  TGI: > 100 µM
[34]
  TGI: > 100 µM
[35]
  TGI: > 100 µM
[36]
  TGI: > 100 µM
[37]
  TGI: > 100 µM
[38]
  TGI: > 100 µM
[39]
  TGI: > 100 µM
[40]
  TGI: > 100 µM
[41]
  TGI: > 100 µM
[42]
  TGI: > 100 µM
[43]
  TGI: > 100 µM
[44]
  TGI: > 100 µM
[45]
  TGI: > 100 µM
[46]
  TGI: > 100 µM
[47]
  TGI: > 100 µM
[48]
  TGI: > 100 µM
[49]
  TGI: > 100 µM
[50]
  TGI: > 100 µM
[51]
  TGI: > 100 µM
[52]
  TGI: > 100 µM
[53]
  TGI: > 100 µM
[54]
  TGI: > 100 µM
[55]
  TGI: > 100 µM
[56]
  TGI: > 100 µM
[57]
  TGI: > 100 µM
[58]
  TGI: > 100 µM

## Oc1c(CN2CCCC2)ccc2cccnc12
[1]
  TGI: > 64 µM
[2]
  TGI: 8.23 µM
[3]
  TGI: > 83.5 µM
[4]
  TGI: > 100 µM
[5]
  TGI: > 41.2 µM
[6]
  TGI: > 82.7 µM
[59]
  TGI: 80.7 µM
[7]
  TGI: > 100 µM
[8]
  TGI: > 31.6 µM
[9]
  TGI: > 100 µM
[10]
  TGI: > 100 µM
[11]
  TGI: 88.7 µM
[12]
  TGI: > 100 µM
[13]
  TGI: > 100 µM
[14]
  TGI: > 100 µM
[15]
  TGI: > 84.6 µM
[16]
  TGI: > 67.7 µM
[17]
  TGI: > 100 µM
[18]
  TGI: > 100 µM
[19]
  TGI: > 70.3 µM
[20]
  TGI: > 100 µM
[21]
  TGI: > 100 µM
[22]
  TGI: > 100 µM
[23]
  TGI: > 73.6 µM
[24]
  TGI: > 100 µM
[25]
  TGI: > 100 µM
[26]
  TGI: > 100 µM
[27]
  TGI: > 100 µM
[28]
  TGI: 32.4 µM
[29]
  TGI: > 100 µM
[30]
  TGI: > 53.9 µM
[31]
  TGI: > 100 µM
[32]
  TGI: > 100 µM
[33]
  TGI: > 100 µM
[34]
  TGI: > 95.6 µM
[35]
  TGI: 14.1 µM
[36]
  TGI: > 84.5 µM
[37]
  TGI: 99.6 µM
[38]
  TGI: > 100 µM
[39]
  TGI: > 69 µM
[40]
  TGI: 59.5 µM
[41]
  TGI: > 100 µM
[42]
  TGI: > 100 µM
[43]
  TGI: > 65.8 µM
[44]
  TGI: 71.5 µM
[45]
  TGI: 60.8 µM
[46]
  TGI: > 78.5 µM
[47]
  TGI: > 100 µM
[48]
  TGI: > 100 µM
[49]
  TGI: > 100 µM
[50]
  TGI: 48.2 µM
[51]
  TGI: > 100 µM
[52]
  TGI: > 100 µM
[53]
  TGI: > 100 µM
[54]
  TGI: > 100 µM
[55]
  TGI: 60.5 µM
[56]
  TGI: > 96.2 µM
[57]
  TGI: > 100 µM
[58]
  TGI: > 100 µM
